# Test results reported in patent US20260176232A1, “PROBENECID COMPOUNDS FOR THE TREATMENT OF INFLAMMASOME-MEDIATED DERMATOLOGICAL CONDITIONS” (Bacainn Biotherapeutics, Ltd., priority 2022, published 2026).
# Columns and labels:
# [1] = tested on: anisomycin-induced psoriatic dermatitis; experiment: Anisomycin-induced psoriatic dermatitis, topical treatment of murine ear; parameters: species or system C57BL/6 mice; settings: mouse, in vivo
# Excerpt: Psoriasis is a chronic inflammatory skin disease characterized by IL-17-mediated immune responses, and p38 is known to be highly activated in the psoriatic epidermis. In this example, a p38 activator, anisomycin, is applied daily to murine skin. The probenecid analogs of the present technology (e.g., BT032) are applied to murine psoriatic models topically or to human psoriatic skin specimens ex vivo. Mice. Eight- to 12-week old female mice are used in this study. All animals are of the C57BL/6 genetic background. Animals are maintained under specific pathogen-free conditions. Anisomycin treatment. Anisomycin solution (2 mg/mL in 99.5% ethanol) is applied to the inner and outer sides of a murine ear once daily at a dosage of 10 μL per side of the ear. Histological analyses. For histologic examination, ear skin samples are fixed with 10% formalin and embedded in paraffin. Sections along the median plane of the ear with a thickness of 5 μm are prepared and subjected to staining with hematoxylin and eosin (H&E). Images of two consecutive microscopic fields of H&E-stained sections are obtained using a digital microscope. Time course changes in ear thickness are measured. Thickness is measured daily before treatment.
# [2] = molecular target: T1, recombinant full length NLRP1 (Homo sapiens, UniProt Q9C000); experiment: Photo-affinity labelling of recombinant full length NLRP1, anti-PEG immunoblot (FIG. 9E); format: binding; settings: inferred from photo-affinity probes ADS165, ADS167
# T1 sequence (Q9C000 1-1473): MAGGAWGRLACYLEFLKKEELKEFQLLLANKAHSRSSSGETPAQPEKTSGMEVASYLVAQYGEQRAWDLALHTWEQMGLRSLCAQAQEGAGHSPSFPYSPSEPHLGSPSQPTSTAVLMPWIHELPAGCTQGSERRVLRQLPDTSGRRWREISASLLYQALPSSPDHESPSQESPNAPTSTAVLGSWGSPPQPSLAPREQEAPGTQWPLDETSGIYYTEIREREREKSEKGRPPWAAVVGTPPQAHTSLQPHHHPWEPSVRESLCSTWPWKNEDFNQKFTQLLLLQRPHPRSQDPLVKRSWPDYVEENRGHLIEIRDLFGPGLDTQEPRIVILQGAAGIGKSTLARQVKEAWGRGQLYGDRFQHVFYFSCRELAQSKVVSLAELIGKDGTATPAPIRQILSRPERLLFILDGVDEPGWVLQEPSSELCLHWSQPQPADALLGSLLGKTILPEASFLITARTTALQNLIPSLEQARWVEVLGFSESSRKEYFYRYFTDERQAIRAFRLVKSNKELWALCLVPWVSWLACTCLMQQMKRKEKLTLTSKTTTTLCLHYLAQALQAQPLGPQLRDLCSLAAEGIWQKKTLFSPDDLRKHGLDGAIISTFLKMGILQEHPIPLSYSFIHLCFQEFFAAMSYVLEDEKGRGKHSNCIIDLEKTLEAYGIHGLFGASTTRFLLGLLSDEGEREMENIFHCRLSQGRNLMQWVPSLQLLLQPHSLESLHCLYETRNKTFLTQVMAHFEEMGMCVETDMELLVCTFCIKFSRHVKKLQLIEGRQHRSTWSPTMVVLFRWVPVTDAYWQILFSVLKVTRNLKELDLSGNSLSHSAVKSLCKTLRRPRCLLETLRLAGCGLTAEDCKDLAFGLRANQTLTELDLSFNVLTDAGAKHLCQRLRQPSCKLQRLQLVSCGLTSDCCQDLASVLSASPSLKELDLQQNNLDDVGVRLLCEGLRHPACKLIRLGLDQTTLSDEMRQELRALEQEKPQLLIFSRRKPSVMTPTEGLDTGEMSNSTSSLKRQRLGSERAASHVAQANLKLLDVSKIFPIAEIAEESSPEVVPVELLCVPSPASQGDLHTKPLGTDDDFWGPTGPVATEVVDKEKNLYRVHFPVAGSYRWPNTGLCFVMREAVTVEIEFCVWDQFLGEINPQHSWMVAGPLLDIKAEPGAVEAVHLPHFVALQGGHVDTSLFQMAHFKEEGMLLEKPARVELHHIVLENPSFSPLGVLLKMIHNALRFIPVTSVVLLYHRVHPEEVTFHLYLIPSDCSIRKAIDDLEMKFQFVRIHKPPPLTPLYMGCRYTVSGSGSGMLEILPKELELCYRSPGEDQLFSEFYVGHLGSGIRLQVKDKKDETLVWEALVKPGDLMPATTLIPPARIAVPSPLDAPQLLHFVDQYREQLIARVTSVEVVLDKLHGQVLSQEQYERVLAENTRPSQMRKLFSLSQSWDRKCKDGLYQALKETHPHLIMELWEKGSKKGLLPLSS
# Protocol: FIGS. 9A-9F are a series of panels showing ADS032 (also referred to herein as “BT032”) directly binds to NLRP1 and NLRP3. FIGS. 9A and 9B are chemical structures of ADS165 and ADS167. […] ADS165 was then co-incubated for 20 mins and UV treated for 20 mins to cross-link associated compound and protein. Protein was separated by SDS-PAGE and immunoblotted (IB) with anti-PEG to visualize ADS165-linked protein. FIG. 9D: iBMDM cells stably expressing NLRP3-Flag were treated for 30 mins with ADS165, ADS167 (1 mM) or MCC955 (50 μM) for 30 mins, and irradiated with UV 365 nm for 30 mins. Cells were lysed with buffer and immunoprecipitation (IP) of NLRP3 performed with α-NLRP3 (D4D8T) antibody. Levels of precipitated (IP) and total cellular lysate (Input) NLRP3 were determined by immunoblotting with α-NLRP3 (Cryo-2) antibody. FIG. 9F: NLRP1-Flag was expressed in HEK293T cells (1×10^6) for 20 h and treated with ADS165 (1 mM) for 30 mins where indicated, followed by UV 365 nm for a further 30 mins. Cells were lysed with lysis buffer and […] immunoprecipitated with α-Flag (M2) antibody. Proteins were separated by SDS-PAGE and ADS165-linked NLRP1 identified by immunoblot with a-PEG, while total precipitated NLRP1 visualized by immunoblot with α-NLRP1 and total cell lysate by α-Flag. Data shown is representative of three independent experiments.
# Next, it was determined whether ADSO32 could interact with NLRP1. […] To further investigate this interaction, ectopically expressed Flag-tagged NLRP1 was immunoprecipitated from cell lysates pretreated or not with ADS165 and exposed to UV light.
# AIM2 inflammasome = experiment: IL-1β secretion in macrophages challenged with poly dA:dT (FIG. 4C); format: cell-based, human; settings: BT032 20, 100 μM; 6 h
# Excerpt: In vitro stimulation of human macrophages.
smiles,measurement,setting,value
"CCCN(CCC)S(=O)(=O)c1ccc(-c2ccc(CCCC(=O)O)cc2)cc1 [BT032, 4-(4′-(N,N-dipropylsulfamoyl)-[1,1′-biphenyl]-4-yl)butanoic acid]","ear thickness, scaly erythema, and histologic changes induced by anisomycin",[1],attenuated
same,direct interaction with NLRP1,[2],directly interacts proximal to the Walker B motif within the NACHT domain
same,AIM2 (poly dA:dT)-mediated inflammasome activation,AIM2 inflammasome,no effect
